“And” between values parts separate entries of the source, which are not always exact repeats. Equal values may be shown once.
Columns and labels:
[1] = biological target: T1, recombinant full length LRRK2 (Homo sapiens, UniProt Q5S007); test: Recombinant cellular LRRK2 AlphaScreen assay; format: cell-based; conditions: LRRK2 Ser935 phosphorylation, SH-SY5Y cells over-expressing recombinant full length LRRK2; read-out: pIC50 in the recombinant cellular LRRK2 AlphaScreen assay (converted)
T1 construct: A BacMam virus expressing full length recombinant LRRK2 was purchased from Invitrogen; host or cells: SH-SY5Y human neuroblastoma cells transduced with BacMam LRRK2 virus (MOI 50)
Excerpt: b. Recombinant Cellular LRRK2 AlphaScreen Assay
To determine the activity of compounds against LRRK2 kinase activity in cells, the observed LRRK2 kinase-dependent modulation of LRRK2 Ser 935 phosphorylation (Dzamko et al., 2010, Biochem. J. 430: 405-413) was utilized to develop a quantitative 384 well plate-based immunoassay of LRRK2 Ser935 phosphorylation in the human neuroblastoma cell line SH-SY5Y, engineered to over-express recombinant full length LRRK2 protein. A BacMam virus expressing full length recombinant LRRK2 was purchased from Invitrogen and amplified by inoculation of SF-9 cells at MOI 0.3 for 4-5 days in Sf-900 III SFM medium supplemented with 3% fetal bovine serum. Infected cell cultures were then centrifuged at 2000 g for 20 minutes, viral supernatant titer determined by anti-gp64 plaque assay and stored at 4° C. Affinity-purified anti-phospho LRRK2 Ser935 sheep polyclonal antibody (Dzamko et al., 2010, Biochem. J. 430: 405-413) was biotinylated by standard methods (PerkinElmer). Anti-LRRK2 rabbit polyclonal antibody was purchased from Novus Biologicals. AlphaScreen Protein A IgG Kit (including acceptor and donor beads) was purchased from Perkin Elmer. SH-SY5Y cells were grown in DMEM/F12 medium with 10% dialysed fetal bovine serum and harvested by treatment with 0.5% trypsin-EDTA for 5 minutes at 37° C. followed by centrifugation at 1000 rpm for 4 minutes. The cell pellet was resuspended in Opti-MEM reduced serum media (Invitrogen) at 200,000 cells/ml and mixed with the BacMam LRRK2 virus at MOI=50. 50 μl cell solutions were then dispensed to each well of a 384-well plate and incubated at 37° C., 5% CO2 for 24 hours. Serial dilutions of test compounds were prepared in Opti-MEM reduced serum media (Invitrogen) and 5.6 ul transferred from compound plate to cell assay plate to achieve a top final assay concentration of 10 uM. DMSO was used in certain wells as controls. Cells were incubated at 37° C., 5% CO2 for 60 minutes. The medium was then removed and cells lysed by addition of 20 ul cell lysis buffer (Cell Signaling Technology) and incubation at 4° C. for 20 minutes. 10 ul of antibody/acceptor bead mix [(1/1000 biotinylated-pS935 LRRK2 antibody, 1/1000 total-LRRK2 antibody, 1/100 Acceptor beads in AlphaScreen detection buffer (25 mM Hepes (pH 7.4), 0.5% Triton X-100, 1 mg/ml Dextran 500 and 0.1% BSA)] was then added to each well and plates incubated for 2 hours at ambient temperature in the dark. 10 μl of donor beads solution (1/33.3 donor beads in AlphaScreen detection buffer) was then added to each well. Following incubation for a further 2 hours at ambient temperature in the dark, plates were read on an EnVision™ plate reader at emission 520-620 nm with excitation 680 nm. Dose response curve data was based on sigmoidal dose-response model.

[2] = biological target: T2, Full length G2019 human LRRK2 (Homo sapiens, UniProt Q5S007); test: Full length G2019 human LRRK2 Inhibition Mass Spectrometry assay; format: biochemical; conditions: LRRKtide substrate, RapidFire mass spectrometry; read-out: pIC50 in the Full length G2019 human LRRK2 Inhibition Mass Spectrometry assay (converted)
T2 construct: purified recombinant Full length Flag-LRRK2 in assay buffer; made in house; host or cells: HEK293 6E cells transduced with BacMam virus (virus generated in Sf9 cells)
Method: a. Full Length G2019 Human LRRK2 Inhibition Mass Spectrometry Assay
This assay for Leucine Rich Repeat Kinase 2 (LRRK2) inhibition is based on the direct measurement of the peptide ‘LRRKtide’ (LRRKtide: RLGRDKYKT*LRQIRQ and “*” refers to the site of phosphorylation.) and phosphorylated ‘LRRKtide’ using a high throughput RapidFire mass spectrometry assay. Inhibitors are compounds that reduce the conversion of LRRKtide to phospho-LRRKtide.
HEK293 6E cells were incubated in a 37° C. incubator with a humidified atmosphere of 5% CO2 on an orbital shaker rotating at 110 rpm. On the day of transduction, the cell viability was higher than 98% and the cell density was in the range of 1×10^6˜1.5×10^6 cells/ml. HEK293 6E cells were centrifuged at 1,000 rpm for 10 min, and then the cells were resuspended in fresh Freestyle 293 expression medium (Invitrogen:12338) with 0.1% F-68 (Invitrogen:24040-032) but without antibiotics (G418) at density of 1×10^6 cells/ml. BacMam virus with Flag-hu LRRK2 (genotypically normal) gene was centrifuged at 40,000 g for 2 hours, then resuspended in fresh Freestyle 293 expression medium. The resuspended virus was added into the cells in at MOI of 10. The cells were incubated in a 37° C. incubator with a humidified atmosphere of 5% CO2 in air on an orbital shaker rotating at 110 rpm. Cultures were harvested at approximately 48 hours post-transduction by centrifugation at 4,000 rpm for 20 min and pellets were frozen for purification.
The suspended cells were lysed by sonication on ice for 30 min (2 secs on/4 sec off, 20% amplitude), and centrifuged at 10,000 rpm for 30 minutes at 4° C. The supernatant was incubated with 1 mL per litre of cell culture of anti-Flag magnetic beads (Sigma-Aldrich: M8823) at 4° C. for 3 hours, then the beads were washed by 5 mL (5 column volume) binding buffer (50 mM Tris pH7.5@ 4C, 500 mM NaCl, 0.5 mM EDTA, 0.1% TritonX-100, 10% glycerol, freshly add 2 mM DTT) for three times. The Flag tagged LRRK2 proteins were eluted by Elution buffer (50 mM Tris pH7.5@ 4C, 500 mM NaCl, 0.5 mM EDTA, 0.1% TritonX-100, 10% glycerol, freshly add 2 mM DTT, 250 ug/ml Flag peptide (Sigma-Aldrich:F3290)) at 4° C. for 2 hours. Flag peptide was removed by Zeba Spin Desalting Columns, 7K MWCO (Thermo-Fisher: 89893) and the buffer of eluted LRRK2 proteins was exchanged into Storage Buffer (50 mM Tris pH7.5@4C, 150 mM NaCl, 0.5 mM EDTA, 0.02% Triton X-100, 2 mM DTT and 50% Glycerol) using Amicon Ultra Centrifugal Filter Units (100 kD) (Merck: UFC910096). Fractions containing LRRK2 proteins were pooled, aliquoted and stored at −80° C. Protein concentration was determined by Bradford protein assay, and protein purity was analyzed by NuPAG Novex 4-12% Bis-Tris Protein Gels (Invitrogen: NP0322BOX).
• 1) A 10 mM test compound was dissolved in 100% DMSO and serially diluted 1 in 4. 100 nL of this dilution series was then added to a 384 well, v bottom polypropylene plate, excluding columns 6 and 18. 100 nL of DMSO was added to columns 6 and 18 as controls wells. Assay dilution gave a top final assay concentration of test compound of 100 μM • 2) 50 μl of 1% formic acid in laboratory grade water was added to column 18 using a multidrop combi dispenser to act as a pre stopped assay control. • 3) 5 μl of ‘enzyme solution’ containing 50 nM of purified recombinant Full length Flag-LRRK2 in assay buffer (50 mM Hepes (pH 7.2), 10 mM MgCl2, 150 mM NaCl, 5% glycerol, 0.0025% triton X-100 and 1 mM DTT) was added to all wells using a multidrop combi dispenser, giving a final assay concentration of 25 nM LRRK2 enzyme. […] Test plates were then incubated for 30 minutes at room temperature. • 4) 5 μl ‘substrate solution’ containing 50 uM LRRKtide peptide substrate and 4 mM ATP was added to all wells of the plate using a multidrop combi dispenser giving a final assay concentration of 25 uM LRRKtide and 2 mM ATP. Test plates were then incubated for 1 hour at room temperature. […]

T2 sequence (Q5S007 with tags, fused parts or gaps R50H): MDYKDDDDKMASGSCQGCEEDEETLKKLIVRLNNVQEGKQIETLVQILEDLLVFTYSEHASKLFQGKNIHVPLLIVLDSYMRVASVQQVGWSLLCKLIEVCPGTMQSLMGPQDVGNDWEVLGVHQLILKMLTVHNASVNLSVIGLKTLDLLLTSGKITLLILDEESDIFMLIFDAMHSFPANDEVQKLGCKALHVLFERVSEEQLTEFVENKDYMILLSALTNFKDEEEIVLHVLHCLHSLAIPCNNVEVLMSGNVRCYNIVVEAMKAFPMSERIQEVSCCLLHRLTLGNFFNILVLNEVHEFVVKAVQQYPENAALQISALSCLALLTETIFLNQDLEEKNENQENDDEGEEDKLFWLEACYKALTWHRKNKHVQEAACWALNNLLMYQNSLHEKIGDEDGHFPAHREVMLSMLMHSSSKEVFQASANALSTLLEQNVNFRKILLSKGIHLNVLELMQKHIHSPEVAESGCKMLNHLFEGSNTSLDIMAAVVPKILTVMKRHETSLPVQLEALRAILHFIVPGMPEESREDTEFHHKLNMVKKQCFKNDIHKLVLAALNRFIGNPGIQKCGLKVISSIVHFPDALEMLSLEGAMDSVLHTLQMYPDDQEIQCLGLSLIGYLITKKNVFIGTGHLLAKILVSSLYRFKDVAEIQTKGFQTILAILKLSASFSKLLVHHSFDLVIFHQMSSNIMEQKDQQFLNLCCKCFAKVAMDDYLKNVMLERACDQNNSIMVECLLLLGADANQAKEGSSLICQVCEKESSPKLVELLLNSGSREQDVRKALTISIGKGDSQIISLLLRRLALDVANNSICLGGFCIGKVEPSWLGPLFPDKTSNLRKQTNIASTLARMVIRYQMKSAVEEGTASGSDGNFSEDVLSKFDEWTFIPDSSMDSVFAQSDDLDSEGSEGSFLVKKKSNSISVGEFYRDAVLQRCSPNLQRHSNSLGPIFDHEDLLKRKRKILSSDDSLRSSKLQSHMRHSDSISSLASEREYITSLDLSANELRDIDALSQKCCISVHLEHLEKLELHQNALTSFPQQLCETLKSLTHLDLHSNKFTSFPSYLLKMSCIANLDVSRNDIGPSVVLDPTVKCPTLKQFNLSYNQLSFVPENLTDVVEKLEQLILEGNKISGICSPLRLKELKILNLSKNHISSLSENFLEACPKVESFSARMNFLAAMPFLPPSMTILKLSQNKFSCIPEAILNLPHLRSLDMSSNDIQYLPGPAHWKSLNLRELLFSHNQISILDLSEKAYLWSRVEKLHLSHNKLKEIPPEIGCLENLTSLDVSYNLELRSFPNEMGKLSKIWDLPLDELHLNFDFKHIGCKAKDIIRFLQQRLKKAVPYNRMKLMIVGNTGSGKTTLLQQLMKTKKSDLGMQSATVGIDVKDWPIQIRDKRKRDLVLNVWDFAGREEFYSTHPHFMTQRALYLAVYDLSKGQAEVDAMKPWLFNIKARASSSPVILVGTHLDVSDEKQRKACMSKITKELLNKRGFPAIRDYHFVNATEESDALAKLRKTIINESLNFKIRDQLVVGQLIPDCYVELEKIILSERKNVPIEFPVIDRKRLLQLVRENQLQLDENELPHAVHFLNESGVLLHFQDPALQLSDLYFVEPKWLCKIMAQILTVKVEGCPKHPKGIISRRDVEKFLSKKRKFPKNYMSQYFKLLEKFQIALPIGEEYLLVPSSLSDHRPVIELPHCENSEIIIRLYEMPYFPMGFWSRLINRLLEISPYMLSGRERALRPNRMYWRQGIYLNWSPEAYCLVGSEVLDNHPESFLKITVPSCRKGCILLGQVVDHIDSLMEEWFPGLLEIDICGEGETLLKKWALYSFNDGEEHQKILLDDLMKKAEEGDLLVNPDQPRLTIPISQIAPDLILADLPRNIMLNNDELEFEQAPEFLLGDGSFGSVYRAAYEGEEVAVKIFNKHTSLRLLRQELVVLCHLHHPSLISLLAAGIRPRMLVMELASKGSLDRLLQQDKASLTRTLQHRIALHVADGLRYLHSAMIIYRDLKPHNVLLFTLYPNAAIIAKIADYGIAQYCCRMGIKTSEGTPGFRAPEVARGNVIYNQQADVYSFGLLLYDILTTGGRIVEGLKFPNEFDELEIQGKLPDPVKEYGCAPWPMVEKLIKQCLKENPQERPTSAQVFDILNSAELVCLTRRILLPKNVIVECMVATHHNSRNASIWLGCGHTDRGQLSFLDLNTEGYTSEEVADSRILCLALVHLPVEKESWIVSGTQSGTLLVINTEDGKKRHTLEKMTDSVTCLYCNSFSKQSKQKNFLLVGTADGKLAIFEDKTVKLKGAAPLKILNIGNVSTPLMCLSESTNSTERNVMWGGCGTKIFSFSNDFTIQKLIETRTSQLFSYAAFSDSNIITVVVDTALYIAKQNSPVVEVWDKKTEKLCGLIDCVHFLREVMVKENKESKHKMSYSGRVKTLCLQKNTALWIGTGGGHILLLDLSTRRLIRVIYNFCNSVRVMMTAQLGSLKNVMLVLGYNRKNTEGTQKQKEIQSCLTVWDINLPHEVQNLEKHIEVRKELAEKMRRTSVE
T1 sequence (Q5S007 whole entry): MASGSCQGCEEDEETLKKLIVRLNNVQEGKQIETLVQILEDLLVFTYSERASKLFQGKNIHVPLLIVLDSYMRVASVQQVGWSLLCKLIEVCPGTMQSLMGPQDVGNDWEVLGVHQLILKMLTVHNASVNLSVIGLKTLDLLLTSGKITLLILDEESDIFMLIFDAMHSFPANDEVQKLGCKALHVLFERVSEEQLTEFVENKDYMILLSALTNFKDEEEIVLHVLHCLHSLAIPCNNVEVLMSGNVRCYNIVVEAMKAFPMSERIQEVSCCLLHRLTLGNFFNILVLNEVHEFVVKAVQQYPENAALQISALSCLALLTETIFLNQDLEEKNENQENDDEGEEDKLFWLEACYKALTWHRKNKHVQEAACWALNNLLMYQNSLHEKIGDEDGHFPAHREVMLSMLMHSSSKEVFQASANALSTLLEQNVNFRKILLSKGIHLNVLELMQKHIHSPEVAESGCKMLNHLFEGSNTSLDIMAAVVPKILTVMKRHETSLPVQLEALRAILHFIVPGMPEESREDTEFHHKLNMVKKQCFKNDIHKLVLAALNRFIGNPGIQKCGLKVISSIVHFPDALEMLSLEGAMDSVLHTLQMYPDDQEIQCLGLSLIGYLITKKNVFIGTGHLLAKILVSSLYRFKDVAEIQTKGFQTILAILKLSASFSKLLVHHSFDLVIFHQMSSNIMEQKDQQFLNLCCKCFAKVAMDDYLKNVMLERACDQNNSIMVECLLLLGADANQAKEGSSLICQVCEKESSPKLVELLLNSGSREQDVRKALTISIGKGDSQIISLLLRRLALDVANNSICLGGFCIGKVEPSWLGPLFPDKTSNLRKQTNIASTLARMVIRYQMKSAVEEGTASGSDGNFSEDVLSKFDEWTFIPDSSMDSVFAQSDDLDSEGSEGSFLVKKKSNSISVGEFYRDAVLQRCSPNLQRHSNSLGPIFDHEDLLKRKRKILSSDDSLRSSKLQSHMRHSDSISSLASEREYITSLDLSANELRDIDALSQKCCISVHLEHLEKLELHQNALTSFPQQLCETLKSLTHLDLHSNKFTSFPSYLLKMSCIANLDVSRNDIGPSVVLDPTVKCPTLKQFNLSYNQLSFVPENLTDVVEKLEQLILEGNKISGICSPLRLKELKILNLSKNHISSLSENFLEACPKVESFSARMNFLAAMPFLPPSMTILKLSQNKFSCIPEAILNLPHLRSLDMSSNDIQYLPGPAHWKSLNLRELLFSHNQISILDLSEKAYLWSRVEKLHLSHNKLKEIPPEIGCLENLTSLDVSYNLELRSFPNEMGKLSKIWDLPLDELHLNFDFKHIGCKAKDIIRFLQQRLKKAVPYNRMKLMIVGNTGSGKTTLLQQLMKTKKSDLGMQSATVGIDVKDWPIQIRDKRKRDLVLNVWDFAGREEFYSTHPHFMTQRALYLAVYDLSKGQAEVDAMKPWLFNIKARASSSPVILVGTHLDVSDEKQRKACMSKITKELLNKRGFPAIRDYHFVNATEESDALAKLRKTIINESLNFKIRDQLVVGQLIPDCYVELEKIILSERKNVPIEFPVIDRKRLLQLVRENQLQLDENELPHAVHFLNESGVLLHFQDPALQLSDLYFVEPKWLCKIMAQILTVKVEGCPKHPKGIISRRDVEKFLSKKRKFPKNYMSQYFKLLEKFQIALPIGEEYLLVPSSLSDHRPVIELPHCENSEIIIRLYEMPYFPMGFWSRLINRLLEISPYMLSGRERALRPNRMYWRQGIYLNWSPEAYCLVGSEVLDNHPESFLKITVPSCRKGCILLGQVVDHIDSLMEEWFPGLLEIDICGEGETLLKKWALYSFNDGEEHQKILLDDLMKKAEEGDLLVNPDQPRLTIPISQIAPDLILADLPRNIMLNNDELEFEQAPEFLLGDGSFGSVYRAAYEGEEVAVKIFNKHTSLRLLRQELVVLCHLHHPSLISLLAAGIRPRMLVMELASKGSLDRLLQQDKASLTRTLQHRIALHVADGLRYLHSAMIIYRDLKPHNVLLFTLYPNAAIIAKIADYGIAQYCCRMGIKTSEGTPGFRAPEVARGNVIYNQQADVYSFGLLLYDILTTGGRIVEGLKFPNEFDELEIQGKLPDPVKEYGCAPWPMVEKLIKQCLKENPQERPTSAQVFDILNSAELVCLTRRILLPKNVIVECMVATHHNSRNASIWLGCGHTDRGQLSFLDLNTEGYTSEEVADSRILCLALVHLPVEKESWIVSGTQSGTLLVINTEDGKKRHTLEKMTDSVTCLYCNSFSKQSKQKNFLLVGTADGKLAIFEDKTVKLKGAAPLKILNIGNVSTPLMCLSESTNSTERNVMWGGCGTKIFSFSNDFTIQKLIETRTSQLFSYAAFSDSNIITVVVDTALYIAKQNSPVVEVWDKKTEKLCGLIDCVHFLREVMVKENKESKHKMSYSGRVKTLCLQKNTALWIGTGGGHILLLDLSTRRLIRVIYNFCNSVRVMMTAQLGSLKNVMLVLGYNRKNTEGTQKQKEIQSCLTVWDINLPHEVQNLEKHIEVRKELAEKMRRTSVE

| SMILES | IC50 [1] | IC50 [2] |
| --- | --- | --- |
| Cc1nc(N[C@H]2C[C@@H](O)C2)cc(-n2ncc3cc(C)c(C4CCN(C5CCOC5)CC4)cc32)n1 (single isomer, unassigned) [Example E133, Cis-3-((2-methyl-6-(5-methyl-6-(1-(tetrahydrofuran-3-yl)piperidin-4-yl)-1H-indazol-1-yl)pyrimidin-4-yl)amino)cyclobutanol] | ≤ 1000 nM | ≤ 1000 nM |
| Cc1nc(N2CC(C)(O)C2)cc(-n2ncc3cc(Cl)c(C4CCN(C5CCOC5)CC4)cc32)n1 (single isomer, unassigned) [Example E128, 1-(6-(5-chloro-6-(1-(tetrahydrofuran-3-yl)piperidin-4-yl)-1H-indazol-1-yl)-2-methyl-pyrimidin-4-yl)-3-methylazetidin-3-ol] | ≤ 1000 nM | ≤ 1000 nM |
| Cc1nc(N2CCOC(C(C)O)C2)cc(-n2ncc3cc(C)c(C4CCN(C5CCOC5)CC4)cc32)n1 (single isomer, unassigned) [Example E135, 1-(4-(2-methyl-6-(5-methyl-6-(1-(tetrahydrofuran-3-yl)piperidin-4-yl)-1H-indazol-1-yl)pyrimidin-4-yl)morpholin-2-yl)ethanol] | ≤ 100 nM | ≤ 100 nM |
| Cc1nc(N2CCOC[C@@H]2CO)cc(-n2ncc3cc(C)c(C4CCN(C5CCOC5)CC4)cc32)n1 (single isomer, unassigned) [Example E113] | ≤ 1000 nM | ≤ 1000 nM |
| COc1nc(N2CC(O)C2)cc(-n2ncc3cc(Cl)c(C4CCN(C5CCOC5)CC4)cc32)n1 (single isomer, unassigned) [Example E30, 1-(6-(5-Chloro-6-(1-(tetrahydrofuran-3-yl)piperidin-4-yl)-1H-indazol-1-yl)-2-methoxy-pyrimidin-4-yl)azetidin-3-ol] | ≤ 100 nM | ≤ 1000 nM |
| Cc1nc(N2CCO[C@@H](CO)C2)cc(-n2ncc3cc(Cl)c(C4CCN(C5CCOC5)CC4)cc32)n1 (single isomer, unassigned) [Example E130] | ≤ 100 nM | ≤ 100 nM |
| Cc1nc(N[C@H]2C[C@@H](O)C2)cc(-n2ncc3cc(C)c(C4CCN(C5CCOC5)CC4)cc32)n1 (single isomer, unassigned) [Example E134, Cis-3-((2-methyl-6-(5-methyl-6-(1-(tetrahydrofuran-3-yl)piperidin-4-yl)-1H-indazol-1-yl)pyrimidin-4-yl)amino)cyclobutanol] | ≤ 100 nM | ≤ 100 nM |
| Cc1nc(N2CCOC(C(C)O)C2)cc(-n2ncc3cc(C)c(C4CCN(C5CCOC5)CC4)cc32)n1 (single isomer, unassigned) [Example E138, 1-(4-(2-methyl-6-(5-methyl-6-(1-(tetrahydrofuran-3-yl)piperidin-4-yl)-1H-indazol-1-yl)pyrimidin-4-yl)morpholin-2-yl)ethanol] | ≤ 100 nM and 63.1 nM | ≤ 100 nM and 25.1 nM |

The remaining lines, values ahead:

| IC50 [1] | IC50 [2] | SMILES |
| --- | --- | --- |
| ≤ 10 nM | ≤ 10 nM | COc1nc(N2CCO[C@@H](CO)C2)cc(-n2ncc3cc(C)c(C4CCN(C5CCOC5)CC4F)cc32)n1 (single isomer, unassigned) [Example E118] |
| 100 nM | 25.1 nM | Cc1nc(N2CCO[C@@H](CO)C2)cc(-n2ncc3cc(C)c(C4CCN([C@H]5CCOC5)CC4)cc32)n1 (single isomer, unassigned) [Example E4] |
| ≤ 100 nM | ≤ 1000 nM | Cc1nc(N2CC(O)C2)cc(-n2ncc3cc(C)c(C4CCN(C5CCOC5)CC4F)cc32)n1 (single isomer, unassigned) [Example E13, cis-1-(6-(6-(3-Fluoro-1-(tetrahydrofuran-3-yl)piperidin-4-yl)-5-methyl-1H-indazol-1-yl)-2-methylpyrimidin-4-yl)azetidin-3-ol] |
| ≤ 10 nM | ≤ 1000 nM | COc1nc(N2CCOCC2)cc(-n2ncc3cc(C)c(C4CCN(C5CCOC5)CC4F)cc32)n1 (single isomer, unassigned) [Example E125, 4-(6-(6-(3-fluoro-1-(tetrahydrofuran-3-yl)-piperidin-4-yl)-5-methyl-1H-indazol-1-yl)-2-methoxypyrimidin-4-yl)morpholine] |
| ≤ 100 nM | ≤ 100 nM | COc1nc(N2CCOCC2)cc(-n2ncc3cc(C)c(C4CCN(C5CCOC5)CC4F)cc32)n1 (single isomer, unassigned) [Example E126, 4-(6-(6-(3-fluoro-1-(tetrahydrofuran-3-yl)-piperidin-4-yl)-5-methyl-1H-indazol-1-yl)-2-methoxypyrimidin-4-yl)morpholine] |
| ≤ 10 nM | ≤ 1000 nM | COc1nc(N2CCO[C@@H](CO)C2)cc(-n2ncc3cc(C)c(C4CCN(C5CCOC5)CC4F)cc32)n1 (single isomer, unassigned) [Example E117] |
